Source: PubChem BioAssay (NCI)
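A five-concentration, 48-hour dose response in 96-well plates underlies each endpoint, interpolated linearly between surrounding concentrations. TGI: concentration producing complete growth inhibition.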

Columns and labels:
Experiment in all cases: NCI-60 cell line screen, 48 h
[1] = system: A498 renal
[2] = system: ACHN renal
[3] = system: CAKI-1 renal
[4] = system: CCRF-CEM leukemia
[5] = system: COLO 205 colon
[6] = system: DLD-1 colon
[7] = system: DMS 273 small cell lung
[8] = system: EKVX NSCLC
[9] = system: HCT-116 colon
[10] = system: HCT-15 colon
[11] = system: HOP-62 NSCLC
[12] = system: HOP-92 NSCLC
[13] = system: HT29 colon
[14] = system: IGROV1 ovarian
[15] = system: K-562 leukemia
[16] = system: KM12 colon
[17] = system: KM20L2 colon
[18] = system: LOX IMVI melanoma
[19] = system: LXFL 529 NSCLC
[20] = system: M14 melanoma
[21] = system: M19-MEL melanoma
[22] = system: MALME-3M melanoma
[23] = system: MOLT-4 leukemia
[24] = system: NCI-H23 lung
[25] = system: NCI-H460 lung
[26] = system: NCI-H522 lung
[27] = system: OVCAR-3 ovarian
[28] = system: OVCAR-5 ovarian
[29] = system: OVCAR-8 ovarian
[30] = system: RPMI-8226 leukemia
[31] = system: RXF 393 renal
[32] = system: RXF-631 renal
[33] = system: SF-295 CNS
[34] = system: SF-539 CNS
[35] = system: SK-MEL-2 melanoma
[36] = system: SK-MEL-28 melanoma
[37] = system: SK-MEL-5 melanoma
[38] = system: SK-OV-3 ovarian
[39] = system: SN12C renal
[40] = system: SNB-19 CNS
[41] = system: SNB-75 CNS
[42] = system: SNB-78 CNS
[43] = system: SR leukemia
[44] = system: SW-620 colon
[45] = system: TK-10 renal
[46] = system: U251 CNS
[47] = system: UACC-257 melanoma
[48] = system: UO-31 renal
[49] = system: 786-0 renal
[50] = system: A549 NSCLC
[51] = system: DMS 114 small cell lung
[52] = system: HCC-2998 colon
[53] = system: HL-60(TB) leukemia
[54] = system: HOP-18 NSCLC
[55] = system: NCI-H226 lung
[56] = system: OVCAR-4 ovarian
[57] = system: SF-268 CNS
[58] = system: UACC-62 melanoma
[59] = system: XF 498 CNS

In the case of `CN(C)[C@@H]1C(=O)C(C(=O)NCN2CCN(C(=N)N=C(N)N)CC2)=C(O)[C@@]2(O)C(=O)C3=C(O)c4c(O)cccc4[C@@](C)(O)[C@H]3C[C@@H]12`, the TGI [1] is reported as 4.88 µM, the TGI [2] is reported as greater than 100 µM and the TGI [3] is reported as greater than 100 µM. For the same compound, the TGI [4] was greater than 100 µM, the TGI [5] was 14.1 µM and the TGI [6] was 19.6 µM. For the same compound, the TGI [7] was 0.922 µM, the TGI [8] was 0.624 µM and the TGI [9] was 17.8 µM. For the same compound, the TGI [10] was 12.2 µM, the TGI [11] was 3.99 µM and the TGI [12] was 0.635 µM. It also gave a TGI [13] of 16.7 µM, a TGI [14] of 22 µM and a TGI [15] of 10.5 µM. It also gave a TGI [16] of 16.9 µM, a TGI [17] of 11.6 µM and a TGI [18] of 2.04 µM. It also gave a TGI [19] of 11.1 µM, a TGI [20] of 1.14 µM and a TGI [21] of 2.28 µM. The TGI [22] was 0.566 µM, the TGI [23] was 0.349 µM and the TGI [24] was 0.33 µM. The TGI [25] was 20.2 µM, the TGI [26] was 0.143 µM and the TGI [27] was 34.8 µM. For the same compound, the TGI [28] was 0.709 µM, the TGI [29] was 11.2 µM and the TGI [30] was 14.7 µM. It also gave a TGI [31] of 0.245 µM, a TGI [32] of 0.763 µM and a TGI [33] of 6.82 µM. For the same compound, the TGI [34] was 0.415 µM, the TGI [35] was 0.255 µM and the TGI [36] was 0.541 µM. The TGI [37] was 0.431 µM, the TGI [38] was 15.8 µM and the TGI [39] was 15.1 µM. The TGI [40] was 15.9 µM, the TGI [41] was 0.338 µM and the TGI [42] was 0.471 µM. The TGI [43] was 2.3 µM, the TGI [44] was 11 µM and the TGI [45] was 14.8 µM. It also gave a TGI [46] of 0.809 µM, a TGI [47] of 6.29 µM and a TGI [48] of 0.982 µM.

For `CC1(O)C(C)(O)C(C)(O)C1(C)O` (centres undefined), the TGI [49] was greater than 100 µM, the TGI [1] was greater than 100 µM and the TGI [50] was greater than 100 µM. The TGI [2] was greater than 100 µM, the TGI [3] was greater than 100 µM and the TGI [4] was greater than 100 µM. For the same compound, the TGI [5] was greater than 100 µM, the TGI [6] was greater than 100 µM and the TGI [51] was greater than 100 µM. The TGI [7] was greater than 100 µM, the TGI [8] was greater than 100 µM and the TGI [52] was greater than 100 µM. It also gave a TGI [9] greater than 100 µM, a TGI [10] greater than 100 µM and a TGI [53] greater than 100 µM. The TGI [54] was greater than 100 µM, the TGI [11] was greater than 100 µM and the TGI [12] was greater than 100 µM. For the same compound, the TGI [13] was greater than 100 µM, the TGI [14] was greater than 100 µM and the TGI [15] was greater than 100 µM. The TGI [16] was greater than 100 µM, the TGI [17] was greater than 100 µM and the TGI [18] was greater than 100 µM. For the same compound, the TGI [19] was greater than 100 µM, the TGI [20] was greater than 100 µM and the TGI [21] was greater than 100 µM. It also gave a TGI [22] greater than 100 µM, a TGI [23] greater than 100 µM and a TGI [55] greater than 100 µM. The TGI [24] was greater than 100 µM, the TGI [25] was greater than 100 µM and the TGI [26] was greater than 100 µM. The TGI [27] was greater than 100 µM, the TGI [56] was greater than 100 µM and the TGI [28] was greater than 100 µM. For the same compound, the TGI [29] was greater than 100 µM, the TGI [31] was greater than 100 µM and the TGI [57] was greater than 100 µM. It also gave a TGI [33] greater than 100 µM, a TGI [34] greater than 100 µM and a TGI [35] greater than 100 µM. The TGI [36] was greater than 100 µM, the TGI [37] was greater than 100 µM and the TGI [38] was greater than 100 µM. For the same compound, the TGI [39] was greater than 100 µM, the TGI [40] was greater than 100 µM and the TGI [41] was greater than 100 µM. It also gave a TGI [42] greater than 100 µM, a TGI [44] greater than 100 µM and a TGI [45] greater than 100 µM. The TGI [46] was greater than 100 µM, the TGI [47] was greater than 100 µM and the TGI [58] was greater than 100 µM. It also gave a TGI [48] greater than 100 µM and a TGI [59] greater than 100 µM.
